The values below come from publication PMC10300798, “Alternative Enzyme Inhibition Assay for Safety Evaluation of Food Preservatives” (Life, 2023).

Common to all, as to format: biochemical
The target in test [1] is T1, alcohol dehydrogenase (ADH) (Saccharomyces cerevisiae, UniProt P00330).
T1 construct: gene ADH1
T1 sequence (P00330 2-348): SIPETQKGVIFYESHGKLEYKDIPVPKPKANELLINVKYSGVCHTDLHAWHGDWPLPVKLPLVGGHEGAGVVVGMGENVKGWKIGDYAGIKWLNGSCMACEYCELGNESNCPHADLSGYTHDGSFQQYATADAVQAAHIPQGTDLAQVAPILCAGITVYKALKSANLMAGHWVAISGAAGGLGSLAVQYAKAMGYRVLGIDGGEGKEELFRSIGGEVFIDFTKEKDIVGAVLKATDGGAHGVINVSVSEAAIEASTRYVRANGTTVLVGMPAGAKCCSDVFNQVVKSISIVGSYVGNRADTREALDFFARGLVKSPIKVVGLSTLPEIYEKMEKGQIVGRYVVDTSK
In words: spectrophotometric NAD+ reduction, […] nm. The following applies: read-out: Potassium Sorbate / IC20.

For a further test, the target named is T2, trypsin (Try) (Sus scrofa, UniProt P00761).
T2 construct: native, from porcine pancreas, lyophilized, 1300 BAEE U/mg (Sigma-Aldrich)
T2 sequence (P00761 9-231): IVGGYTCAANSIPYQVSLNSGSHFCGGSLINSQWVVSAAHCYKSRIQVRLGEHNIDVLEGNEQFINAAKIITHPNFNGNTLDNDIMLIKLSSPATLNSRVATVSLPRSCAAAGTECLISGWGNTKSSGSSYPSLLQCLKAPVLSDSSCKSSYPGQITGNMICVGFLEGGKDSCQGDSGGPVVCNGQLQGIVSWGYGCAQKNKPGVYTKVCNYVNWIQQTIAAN
In words: BAEE hydrolysis, absorbance […] nm. The following applies: read-out: Potassium Sorbate / IC50 (converted).

Test [2] addresses T3, lactate dehydrogenase (LDH) (Oryctolagus cuniculus, UniProt P13491).
T3 construct: gene LDHA
Nature of the test: spectrophotometric NAD+ reduction, […] nm. The following applies: read-out: Sodium Benzoate / IC20.

Regarding `C/C=C/C=C/C(=O)O` [potassium sorbate], the IC20 in test [1] is over 5000 mg/L. In addition, at trypsin (Try), the IC50 is 134 µM.
For the compound `O=C(O)c1ccccc1` [sodium benzoate], the IC20 in test [2] was found to be 2200 ± 321 mg/L.
